Laboratory results from patent US20070128201A1, “Combined use of ecteinascidin-743 and platinum antineoplastic compounds” (Pharma Mar, S.A.U., priority 2003, published 2007).
Where two headings read alike, the source gives them in different places.

Columns and labels:
[1] = test system: HOC 8 human ovarian xenograft; test: Survival of mice bearing intraperitoneal HOC 8 xenograft; type: in vivo
Text: In ovarian carcinoma patients the tumor spreads into the peritoneal cavity. Therefore to mimic clinical disease we have selected a human ovarian xenograft, HOC 8, which was transplanted intraperitoneally from ascites and disseminated in the peritoneal cavity.
When the two drugs were combined the effect was much greater than that of each drug given as single agent with a dramatic increase in survival. […] Three animals were still alive after 12 months, two of them belonging to the group receiving the high ET-743 dose. They were sacrificed and a detailed macroscopic and microscopic pathological evaluation was performed. The mouse belonging to the group receiving the low ET-743 dose was apparently cured as the microscopic analysis of liver, splen, pancreas, bone marrow, diagram, ovary uterus omentum and several lymphnodes were negative.

[2] = test system: human, murine and canine progenitor cells; conditions: cited from earlier work
[3] = type: in vivo, human; conditions: ET-743 with carboplatin at a fixed target (300 mg/m^2), cycle 1 data from 11 patients
Method: We designed a multicenter dose finding trial, on a day 1 every 3 weeks schedule, with carboplatin given at a fixed dose of 300 mg/m^2 as a 1 hour infusion followed by escalating doses of ET given as a 3 hours infusion with steroids and antiemetic prophylaxis.
11 patients were entered (6 with ovarian cancer, 1 with lung cancer, 4 with soft tissue sarcoma). Prior treatments of the patients were the following:
ET-743 doses levels were 500, 650 and 800 μg/m^2/day; 3-6 pts were treated per dose level according to toxicity.
The maximum tolerated dose (MTD) was defined as the highest dose level tested of the combination at which at least 2 patients experience a DLT in cycle 1. If one patient encountered drug-induced DLT during either cycle 1 or 2, up to a maximum of 6 patients could be treated at that level. If DLT was not observed in the additional patients, new patients could be treated at the next higher dose level.

[4] = Toxicity (body weight loss, toxic deaths) of split dose Q4×3; type: in vivo; conditions: Q4×3, 1A9 xenograft experiment
[5] = Toxicity of single i.v. doses of ET-743, DDP and their combination in xenograft experiments; type: in vivo; conditions: drug alone
Method: For the administration of the drugs appropriate vehicles were injected, using the same schedule and route of injection as the drug therapies. […] In xenografts transplanted s.c. tumor growth was monitored and tumor weight (TW) was determined by measuring the tumor diameters with a Vernier caliper every 2-4 days and using the formula TW=d^2×D/2 (where d and D represent the shortest and the longest diameter respectively).

[6] = Dose finding trial ET-743 day 1 & 8 followed by cisplatin: toxicity; type: in vivo, human
Method: We designed a multicenter dose finding trial, […], with escalating doses of ET given as a 3-hr infusion with steroids and antiemetic prophylaxis, followed 30 minutes later by 1 hr infusion cisplatin at a fixed dose of 40 mg/m^2, with 2 L NS hydration.
(§1) 36 patients were entered (15 with ovarian cancer, 6 with uterus cancer, 14 with soft tissue sarcoma, 1 with other tumor type). Prior treatments of the patients were the following:
ET-743 doses levels were 300, 400, 500, 600 and 700 μg/m^2/day; 3-6 were treated per dose level according to toxicity.
ET-743 escalation was uneventful until 500 μg/m^2; at 600 μg/m^2 patients were accrued in 2 separate risk cohort according to prior chemotherapy extent: low risk 1 regimen (LR); high risk ≧2 regimens (HR).

[7] = test system: Ovary, STS gyn, Uterus tumors; test: Dose finding trial ET-743 day 1 & 8 followed by cisplatin: observed efficacy; type: in vivo, human
Method: We designed a multicenter dose finding trial, on a day 1 & 8 every 3 weeks schedule, with escalating doses of ET given as a 3-hr infusion with steroids and antiemetic prophylaxis, followed 30 minutes later by 1 hr infusion cisplatin at a fixed dose of 40 mg/m^2, with 2 L NS hydration.
as §1
The following table illustrates the observed efficacy: […]

SMILES	ILS ([1]; DDP monotherapy) [%]	sensitivity of hematopoietic progenitors [2]	MTD [3] [μg/m^2]	mean body weight loss [4] [%]	maximal single i.v. dose that caused no toxic death [5] [mg/kg]	MTD ([6]; ET-743 with cisplatin 40 mg/m^2, previously treated patients, day 1 & 8 every 4 weeks) [μg/m^2]	Recommended dose (RD) ([6]; human, in vivo) [μg/m^2]	ILS ([1]; ET-743 0.15 mg/kg, Q4×3, monotherapy) [%]	ILS ([1]; ET-743 0.05% (printed), Q4×3, monotherapy) [%]	TTP ([7]; patient: Ovary, prior carboplatin + taxol (NC), topotecan (PD), ET-743 400 μg/m^2 D 1&8 + cisplatin, Lung) [mos]	TTP ([7]; patient: Ovary, prior carboplatin + taxol (NE), paclitaxel (PD), ET-743 600 μg/m^2 D 1&8 + cisplatin, Pelvis, liver)	BEST RESP ([7]; patient: Ovary, prior carboplatin + taxol (PR), ET-743 600 μg/m^2 D 1&8 + cisplatin, Liver Abdomen)	TTP ([7]; patient: STS gyn, prior adriamycin/ifosfamide (AD), ET-743 700 μg/m^2 D 1&8 + cisplatin, Lung)	TTP ([7]; patient: STS-gyn, prior epirubicin + ifosfamide (AD), gemcitabine (PD), ET-743 500 μg/m^2 D 1&8 + cisplatin, Abdomen)	BEST RESP ([7]; patient: STS-gyn, prior epirubicin + ifosfamide (AD), gemcitabine (PD), ET-743 500 μg/m^2 D 1&8 + cisplatin, Abdomen, wrapped cell reads Radiological PR non measurable lesions)	TTP ([7]; patient: Uterus Colon, prior carboplatin (NE), taxol + epirubicin + cisplatin (CR), ET-743 400 μg/m^2 D 1&8 + cisplatin, Bone, Pelvis, Lung) [mos]	BEST RESP ([7]; patient: Uterus Colon, prior carboplatin (NE), taxol + epirubicin + cisplatin (CR), ET-743 400 μg/m^2 D 1&8 + cisplatin, Bone, Pelvis, Lung, wrapped cell reads Radiological PR non measurable lesions)
N.N.[Cl][Pt][Cl] [DDP, cis-diaminedichloroplatinum (II), reference compound]	139	–	–	–	–	–	–	–	–	–	–	–	–	–	–	–	–
COc1cc2c(cc1O)CCN[C@]21CS[C@@H]2c3c(OC(C)=O)c(C)c4c(c3[C@H](COC1=O)N1C2[C@H]2c3c(cc(C)c(OC)c3O)C[C@@H]([C@@H]1O)N2C)OCO4 (some centres unmarked) [ET-743, ecteinascidin-743]	–	equal sensitivity of erythropoid and myeloid cells	800	14	0.2	700	500	23	21	6	6+ mos	Unc PR	3+ mos	5+ mos	Radiological	1	Radiological
